Data from paper PMC7367873, “Dissecting the sequence determinants for dephosphorylation by the catalytic subunits of phosphatases PP1 and PP2A” (Nature Communications, 2020).

Columns and labels:
[1] = system: GFP-14-3-3β and its binding proteins; experiment: GFP-14-3-3β co-IP with LC-MS/MS label-free quantification, untreated versus PP1c-treated; design: species or system human
[2] = system: GFP-14-3-3β; experiment: GFP-14-3-3β co-IP with LC-MS/MS, untreated GFP-14-3-3β versus GFP control (14-3-3 interactome); format: binding, human; settings: log2 difference; pairwise comparison untreated vs GFP, label-free quantification, 3 replicates each

## PP1c: recombinant catalytic subunit of PP1
[1]; 1 µM recombinant PP1c, 1 h at 30 °C, FDR 0.05, of 108 interacting proteins, three replicates
  number of proteins significantly dissociating from 14-3-3: 56 proteins
[1]; log2 difference, pairwise comparison PP1 vs untreated, label-free quantification, 3 replicates each
  Difference (log2), PP1 vs untreated: 5.428
[1]; mapped onto phosphoproteomic dataset, of 56 proteins
  number of dissociating proteins with at least one PP1c-regulated phosphorylation site: 35 proteins
[1]; recombinant PP1c
  14-3-3-protein interactions disrupted: 52%
[2]
  Difference (log2), untreated vs GFP: 1.715
